Assay results taken from patent US20030060481A1 (priority 1999, published 2003).

Assays:
[1] = test system: Wistar, adult, male, rats; assay: Induction of status epilepticus by systemic pilocarpine; type: in vivo; settings: pilocarpine 320 mg/Kg intraperitoneal
[2] = test system: kainate model of epilepsy; assay: Onset of spontaneous recurrent seizures in the kainate model of epilepsy

| Structure (SMILES) | Latency for the onset of status epilepticus after injection [1] [min] | Effect on onset of spontaneous recurrent seizures (in words) [2] |
| --- | --- | --- |
| CC[C@@H]1C(=O)OC[C@@H]1Cc1cncn1C [pilocarpine] | 19 ± 5 |  |
| CN1[C@@H]2C[C@@H](OC(=O)[C@H](CO)c3ccccc3)C[C@H]1[C@@H]1O[C@@H]12 [scopolamine] |  | retard or even suppress the onset of spontaneous recurrent seizures |
